How the values were obtained:
PIM-3 kinase = PIM-3 kinase (Homo sapiens, UniProt Q86V86); assay: Measurement of PIM-3 kinase inhibitory activity (fluorescent substrate peptide, capillary electrophoresis); format: biochemical; conditions: 30 μM ATP, 2 hours at room temperature
Protocol: 1.5 μM of fluorescent substrate peptide (FAM-AKRRRLSSLRA-COOH), 30 μM of ATP, and 0.0833 ng/μL of PIM-3 kinase were incubated with a compound for 2 hours at room temperature, and the Pim-3 kinase activity was measured. The reaction was quantified by separating the substrate and phosphorylation reaction product by capillary electrophoresis (using a Perkin-Elmer EZ reader II) based on the difference in their charges. The results are shown below in Tables 1 and 2.

L3.6pl [1] = assay: Growth inhibitory activity on human pancreatic cancer cell lines (Example 2, WST-8); format: cell-based; conditions: cultured for 72 hours, 2000 cells/well
Protocol: (§1) Two thousand cells of human pancreatic cancer cells lines (L3.6pl, MiaPaca-2, PANC-1, PCI35, PCI66) were seeded in a medium volume of 100 μL in each well of a 96-well microtiter plate. The medium was removed after 18 hours, and 100 μL/well of medium containing the test compound was added. Culture was continued for 72 or 96 hours. The medium containing the test compound was removed, and 100 μL/well of medium containing 10% WST-8 (Dojindo Laboratories Cell Counting kit-8) was added. After culturing for one hour, the OD 450 nm absorbance was measured, and the cell growth inhibitory activity was calculated. Furthermore, RPMI-1640 medium (Sigma) was used as the medium with 10% fetal calf serum (Invitrogen), 50 U/mL penicillin G (Sigma), and 50 μg/mL streptomycin (Sigma) added. The cell lines were cultured at 37° C. in a carbon dioxide incubator with a carbon dioxide concentration of 5%.
(§2) Tables 3 and 4 show the results of compound evaluation when cultured for 96 hours.

MiaPaca-2 [2] = assay: as above; format: cell-based; conditions: cultured for 72 hours, 2000 cells/well
Protocol: as §1, §2

PANC-1 [3] = assay: as above; format: cell-based; conditions: cultured for 72 hours, 2000 cells/well
Protocol: as §1, §2

L3.6pl [4] = assay: Growth inhibitory activity on human pancreatic cancer cell lines (Example 4, WST-8); format: cell-based; conditions: Example 4: 72 hours, 3000 cells/well
Protocol: (§3) Three thousand cells of human pancreatic cancer cell lines (L3.6pl, MiaPaca-2, PANC-1, PCI35, and PCI66) were seeded in a medium volume of 90 μL in each well of a 96-well microtiter plate. After 24 hours, 10 μL/well of medium containing the test compound was added. Culture was continued for 72 hours, and 10 μL/well of WST-8 (Dojindo Laboratories Cell Counting kit-8) was added. After culturing for 2 hours, the OD 450 nm absorbance was measured, and the cell growth inhibitory effect was calculated. The cell lines were cultured in a carbon dioxide incubator with a carbon dioxide concentration of 5%.

MiaPaca-2 [5] = assay: as above; format: cell-based; conditions: MIA PaCa-2, Example 4: 72 hours, 3000 cells/well
Protocol: as §3

PANC-1 [6] = assay: as above; format: cell-based; conditions: Example 4: 72 hours, 3000 cells/well
Protocol: as §3

PCI35 = assay: as above; format: cell-based; conditions: Example 4: 72 hours, 3000 cells/well
Protocol: as §3

PCI66 = assay: as above; format: cell-based; conditions: Example 4: 72 hours, 3000 cells/well
Protocol: as §3

IC50 (PIM-3 kinase) [nM] | IC50 (L3.6pl [1]; Homo sapiens, L3.6pl, 72 h) [nM] | IC50 (MiaPaca-2 [2]; Homo sapiens, MIA PaCa-2) [nM] | IC50 (PANC-1 [3]; Homo sapiens, PANC-1, 72 h) [nM] | Compound | other results
2.8 | – | – | – | COc1ccc2c(c1CN1CCNCC1)O/C(=C\c1n[nH]c3nc(C)ccc13)C2=O [Compound 7, (Z)-6-methoxy-2-[(6-methyl-1H-pyrazolo[3,4-b]pyridin-3-yl)methylene]-7-(piperazin-1-ylmethyl)benzofuran-3(2H)-one] | –
38 | 3500 | 3500 | 12000 | COc1ccc2c(c1CN1CCNC[C@H]1C)O/C(=C\c1n[nH]c3ncccc13)C2=O [Compound 8, (R,Z)-2-[(1H-pyrazolo[3,4-b]pyridin-3-yl)methylene]-6-methoxy-7-[(2-methylpiperazin-1-yl)methyl]benzofuran-3(2H)-one] | –
8.4 | 4000 | 3000 | 12000 | COc1ccc2c(c1CN1CCNC[C@@H]1C)O/C(=C\c1n[nH]c3ncccc13)C2=O [Compound 9, (S,Z)-2-[(1H-pyrazolo[3,4-b]pyridin-3-yl)methylene]-6-methoxy-7-[(2-methylpiperazin-1-yl)methyl]benzofuran-3(2H)-one] | –
19 | 7500 | 3000 | 14000 | COc1ccc2c(c1CN1C[C@@H](C)N[C@@H](C)C1)O/C(=C\c1n[nH]c3ncccc13)C2=O [Compound 10, (Z)-2-[(1H-pyrazolo[3,4-b]pyridin-3-yl)methylene]-7-[(cis-3,5-dimethylpiperazin-1-yl)methyl]-6-methoxybenzofuran-3(2H)-one] | –
1.4 | 3500 | 3400 | 8300 | COc1ccc2c(c1CN1CCN[C@@H](C)C1)O/C(=C\c1n[nH]c3ncccc13)C2=O [Compound 11, (S,Z)-2-[(1H-pyrazolo[3,4-b]pyridin-3-yl)methylene]-6-methoxy-7-[(3-methylpiperazin-1-yl)methyl]benzofuran-3(2H)-one] | –
7.9 | 3500 | 3200 | 8200 | COc1ccc2c(c1CN1CCN[C@H](C)C1)O/C(=C\c1n[nH]c3ncccc13)C2=O [Compound 12, (R,Z)-2-[(1H-pyrazolo[3,4-b]pyridin-3-yl)methylene]-6-methoxy-7-[(3-methylpiperazin-1-yl)methyl]benzofuran-3(2H)-one] | –
150 | 3500 | 2400 | 8400 | COc1ccc2c(c1CN1[C@H](C)CNC[C@@H]1C)O/C(=C\c1n[nH]c3ncccc13)C2=O [Compound 13, (Z)-2-[(1H-pyrazolo[3,4-b]pyridin-3-yl)methylene]-7-[(cis-2,6-dimethylpiperazin-1-yl)methyl]-6-methoxybenzofuran-3(2H)-one] | –
1 | – | – | – | COc1ccc2c(c1CN1CC[C@H](N)C1)O/C(=C\c1n[nH]c3ncccc13)C2=O [Compound 14, (S,Z)-2-[(1H-pyrazolo[3,4-b]pyridin-3-yl)methylene]-7-[(3-aminopyrrolidin-1-yl)methyl]-6-methoxybenzofuran-3(2H)-one] | –
1.6 | – | – | – | COc1ccc2c(c1CN1CC[C@@H](N)C1)O/C(=C\c1n[nH]c3ncccc13)C2=O [Compound 15, (R,Z)-2-[(1H-pyrazolo[3,4-b]pyridin-3-yl)methylene]-7-[(3-aminopyrrolidin-1-yl)methyl]-6-methoxybenzofuran-3(2H)-one] | –
0.7 | – | – | – | COc1ccc2c(c1CC1CCNCC1)O/C(=C\c1n[nH]c3nc(C)ccc13)C2=O [Compound 16, (Z)-6-methoxy-2-[(6-methyl-1H-pyrazolo[3,4-b]pyridin-3-yl)methylene]-7-(piperidin-4-ylmethyl)benzofuran-3(2H)-one] | –
2.2 | – | – | – | O=C1/C(=C/c2n[nH]c3ncccc23)Oc2c1ccc(OC(F)F)c2CC1CCNCC1 [Compound 17, (Z)-2-[(1H-pyrazolo[3,4-b]pyridin-3-yl)methylene]-6-(difluoromethoxy)-7-(piperidin-4-ylmethyl)benzofuran-3(2H)-one] | IC50 (L3.6pl [4]): 6200 nM; IC50 (MiaPaca-2 [5]): 3200 nM; IC50 (PANC-1 [6]): 9700 nM; IC50 (PCI35): 9300 nM; IC50 (PCI66): 18000 nM
0.35 | 250 | 220 | 420 | COc1ccc2c(c1CC1CCNCC1F)O/C(=C\c1n[nH]c3ncccc13)C2=O (centres unmarked) [Compound 18, (Z)-2-[(1H-pyrazolo[3,4-b]pyridin-3-yl)methylene]-7-[(3-fluoropiperidin-4-yl)methyl]-6-methoxybenzofuran-3(2H)-one] | –
0.7 | – | – | – | COc1ccc2c(c1CC1CCNCC1F)O/C(=C\c1n[nH]c3ncccc13)C2=O (centres unmarked) [Compound 19, (Z)-2-[(1H-pyrazolo[3,4-b]pyridin-3-yl)methylene]-7-[(3-fluoropiperidin-4-yl)methyl]-6-methoxybenzofuran-3(2H)-one] | IC50 (L3.6pl [1]): 300 nM; IC50 (MiaPaca-2 [2]): 220 nM; IC50 (PANC-1 [3]): 330 nM
1.3 | – | – | – | CCOc1ccc2c(c1C(C)N1CCNCC1)O/C(=C\c1n[nH]c3ncccc13)C2=O (centres unmarked) [Compound 22, (Z)-2-[(1H-pyrazolo[3,4-b]pyridin-3-yl)methylene]-6-ethoxy-7-[1-(piperazin-1-yl)ethyl]benzofuran-3(2H)-one] | IC50 (L3.6pl [4]): 2800 nM; IC50 (MiaPaca-2 [5]): 1300 nM; IC50 (PANC-1 [6]): 2700 nM; IC50 (PCI35): 1800 nM; IC50 (PCI66): 2500 nM
0.62 | – | – | – | CC(c1c(OCC2CC2)ccc2c1O/C(=C\c1n[nH]c3ncccc13)C2=O)N1CCNCC1 (centres unmarked) [Compound 23, (Z)-2-[(1H-pyrazolo[3,4-b]pyridin-3-yl)methylene]-6-(cyclopropylmethoxy)-7-[1-(piperazin-1-yl)ethyl]benzofuran-3(2H)-one] | IC50 (L3.6pl [4]): 9800 nM; IC50 (MiaPaca-2 [5]): 3800 nM; IC50 (PANC-1 [6]): 8000 nM; IC50 (PCI35): 5300 nM; IC50 (PCI66): 4200 nM
12 | – | – | – | C=C(CN1CCNCC1)c1c(OC)ccc2c1O/C(=C\c1n[nH]c3ncccc13)C2=O [Compound 24, (Z)-2-[(1H-pyrazolo[3,4-b]pyridin-3-yl)methylene]-6-methoxy-7-[3-(piperazin-1-yl)prop-1-en-2-yl]benzofuran-3(2H)-one] | –
1.1 | – | – | – | CN[C@H]1CCN(Cc2c(OC)ccc3c2O/C(=C\c2n[nH]c4ncccc24)C3=O)C1 [Compound 26, (S,Z)-2-[(1H-pyrazolo[3,4-b]pyridin-3-yl)methylene]-6-methoxy-7-{[3-(methylamino)pyrrolidin-1-yl]methyl}benzofuran-3(2H)-one] | –
6.4 | – | – | – | COc1ccc2c(c1C(C)CN1CCNCC1)O/C(=C\c1n[nH]c3ncccc13)C2=O (centres unmarked) [Compound 27, (Z)-2-[(1H-pyrazolo[3,4-b]pyridin-3-yl)methylene]-6-methoxy-7-[1-(piperazin-1-yl)propan-2-yl]benzofuran-3(2H)-one] | –
1.3 | – | – | – | O=C1/C(=C/c2n[nH]c3ncccc23)Oc2c1ccc(Cl)c2CC1CCNCC1 [Compound 28, (Z)-2-[(1H-pyrazolo[3,4-b]pyridin-3-yl)methylene]-6-chloro-7-(piperidin-4-ylmethyl)benzofuran-3(2H)-one] | –
4.5 | – | – | – | O=C1/C(=C/c2n[nH]c3ncccc23)Oc2c1ccc(F)c2CC1CCNCC1 [Compound 29, (Z)-2-[(1H-pyrazolo[3,4-b]pyridin-3-yl)methylene]-6-fluoro-7-(piperidin-4-ylmethyl)benzofuran-3(2H)-one] | IC50 (L3.6pl [4]): 3800 nM; IC50 (MiaPaca-2 [5]): 3500 nM; IC50 (PANC-1 [6]): 3300 nM; IC50 (PCI35): 6800 nM; IC50 (PCI66): 3900 nM
0.96 | – | – | – | COc1ccc2c(c1CN1CCC[C@@H]1CN)O/C(=C\c1n[nH]c3ncccc13)C2=O [Compound 31, (R,Z)-2-[(1H-pyrazolo[3,4-b]pyridin-3-yl)methylene]-7-{[2-(aminomethyl)pyrrolidin-1-yl]methyl}-6-methoxybenzofuran-3(2H)-one] | –

Compound | IC50 (PIM-3 kinase) [nM] | IC50 (L3.6pl [1]; Homo sapiens, L3.6pl, 72 h) [nM] | IC50 (MiaPaca-2 [2]; Homo sapiens, MIA PaCa-2) [nM] | IC50 (PANC-1 [3]; Homo sapiens, PANC-1, 72 h) [nM] | other results
COc1ccc2c(c1CN1CC3CCC(C1)N3)O/C(=C\c1n[nH]c3ncccc13)C2=O [Compound 25, (Z)-2-[(1H-pyrazolo[3,4-b]pyridin-3-yl)methylene]-7-[(3,8-diazabicyclo[3.2.1]octan-3-yl)methyl]-6-methoxybenzofuran-3(2H)-one] | 0.29 | – | – | – | IC50 (L3.6pl [4]): 2900 nM; IC50 (MiaPaca-2 [5]): 1800 nM; IC50 (PANC-1 [6]): 9700 nM; IC50 (PCI35): 2800 nM; IC50 (PCI66): 3600 nM
